Reference: patent US20240140949A1, “ANTI-CANCER PHARMACEUTICAL COMPOSITION FOR TARGETING HEAT SHOCK PROTEIN 70, CONTAINING INDOLOQUINAZOLIDINE ALKALOID” (SEOUL NATIONAL UNIVERSITY R & DB FOUNDATION, priority 2021, published 2024)

How the values were obtained:
[1] = system: H1299 lung cancer cells; assay: Cell viability (MTT assay) in H1299 cells; format: cell-based, human; conditions: 0.5-10 μM, 3 days, MTT (FIG. 9-12)
Description: (§1) Human lung cancer cell lines (H1299, H460, A549, H226B, and PC9), breast cancer cell line (MDA-MB-231), liver cancer cell line (Hep3B), kidney cancer cell line (786-0), prostate cancer cell lines (DU145 and PC-3), and mouse lung cancer cell line (Lewis Lung Carcinoma, LLC) were purchased from ATCC (American Type Culture Collection) or obtained from Dr. John V. Heymach of MD Anderson Cancer Center, USA. The human head and neck cancer cell line (UMSCC38) was obtained from Dr. Jeffrey N. Myers (MD Anderson Cancer Center, USA). Human colon cancer cell lines (HCT116 and HT-29) and glioblastoma cell line (U87MG) were obtained from Professor Sang Kook Lee (Seoul National University College of Pharmacy). The human kidney cancer cell line (Caki-1), and gastric cancer cell line (SNU-638) were purchased from the Korean Cell Line Bank. The chemotherapy-resistant cells [paclitaxel-resistant H460 cells (H460/PcR), paclitaxel-resistant H226B cells (H226B/PcR), cisplatin-resistant H1299 cells (H1299/CsR), pemetrexed-resistant H1299 cells (H1299/PmR)] and molecularly targeted anticancer therapy-resistant cells [erlotinib-resistant PC9 cells (PC9/ER)] were constructed by treating the respective anti-cancer drugs for more than three months. H1299, H460, H226B, PC9, Hep3B, 786-0, DU145, PC-3, HCT116, HT-29, SNU-638, chemotherapeutic resistant cells, and molecularly targeted anticancer therapy-resistant cells were cultured in RPMI 1640 media containing 10% fetal bovine serum (FBS) and antibiotics at 37° C. under 5% CO2 conditions, while MDA-MB-231, UMSCC38, U87MG, Caki-1 were cultured in DMEM media containing 10% FBS and antibiotics at 37° C. under 5% CO2 conditions. Cells were passaged 1-2 times per week.
(§2) The cancer cell lines were seeded in a 96-well plate at a density of 2×10^3 cells per well and cultured for 24 hours to allow the cells to attach. The cells were then treated with diluted drugs in media for 3 days and cell viability was assessed using MTT assay or crystal violet (CB) assay. For the MTT assay, MTT solution dissolved in PBS was added to achieve a final concentration of 500 μg/mL and incubated for 2-4 hours, after which the medium was removed and the formed formazan was dissolved in 100% DMSO, followed by measuring the absorbance at 570 nm. For the CB assay, the cultured cells were fixed with 100% methanol, stained with a 0.025% crystal violet solution, dissolved in 1% SDS solution, and the absorbance was measured at 570 nm. Cell viability was calculated as the percentage of absorbance change in drug-treated group compared to vehicle (DMSO) treated control group.

[2] = system: lung cancer cells; assay: Anchorage-independent (soft agar) colony formation; format: cell-based; conditions: soft agar (FIG. 20)
Procedure: Before the experiment, a 1% agar solution made with low-melting agar was placed in a 24-well plate and hardened at room temperature to create a bottom agar. The cells were diluted with medium to seed 2×10^3 cells per well in a 24-well plate. Then, it was mixed with a 1% agar solution to create a final 0.4% agar solution, which was then solidified at room temperature in the plate containing the bottom agar. Medium containing the drug was added on top of the cells mixed in the agar and cultured for 1-3 weeks at 37° C. in a 5% CO2 condition, after which the formed colonies were stained with an MTT solution of 250-500 μg/mL and counted. The colony formation inhibitory effect of the drug was calculated by expressing the change in colony numbers in the drug-treated group compared to the vehicle (DMSO) treated control group as a percentage.

[3] = system: lung cancer cell; assay: Cancer cell survival inhibitory activity (MTT assay) of EV501 to EV509; format: cell-based; conditions: 0.5 μM (lowest concentration), MTT assay (FIG. 18)
Procedure: as §2

[4] = system: cancer cell; assay: Cancer cell survival inhibitory activity (crystal violet assay); format: cell-based; conditions: crystal violet assay (FIG. 19)
Procedure: as §2

[5] = system: Hsp70 protein and Hsp70/Hsp90 client proteins (Akt, Src, and MEK); assay: Western blot of Hsp70 and client proteins in lung cancer cells; format: cell-based, human; conditions: for expression of Hsp70 protein and Hsp70/Hsp90 client proteins (Akt, Src, and MEK): H1299 cells, up to 250 nM, 2 days (FIG. 17)
Description: as §1
The cells treated with the drug were treated with RIPA lysis buffer [50 mM Tris-HCl (pH 7.4), 150 mM NaCl, 1 mM EDTA, 0.25% sodium deoxycholate, 1% Triton X-100, 100 mM NaF, 5 mM Na3VO4, 1 mM PMSF, 1 μg/mL aprotinin, 1 μg/mL leupeptin, and 1 μg/mL pepstatin], followed by incubation on ice for 10 minutes and centrifugation at 13,000 rpm for 15 minutes to extract proteins. The proteins were quantified by BCA assay and equal amounts of proteins were separated by 8-10% SDS-PAGE. The separated proteins were transferred to a PVDF membrane, and the areas of the membrane not transferred with protein were blocked by incubating the membrane in 5% skim milk solution or 3% BSA solution diluted in TBST at room temperature for 1 hour. The membrane was then incubated in a primary antibody solution diluted 1:1,000 in 3% BSA at 4° C. for more than 12 hours. The primary antibody used was either anti-Hsp70 or anti-actin, with the anti-Hsp70 antibody obtained from Enzo Life Science and the actin antibody obtained from Santa Cruz Biotechnology. After incubation, the membrane was washed for 1 hour while changing TBST several times, and then incubated for 1 hour at room temperature with a secondary antibody (GeneTex) diluted 1:5,000 in 5% skim milk solution. After incubation, the membrane was washed for 1 hour while changing TBST several times, and then treated with an enhanced chemiluminescence (ECL) solution. The expression of Hsp70 or Actin protein was detected using LAS4000.

[6] = system: various lung cancer cell lines and chemotherapeutic agent-resistant lung cancer cell lines; assay: Cell viability in lung cancer and chemotherapeutic drug-resistant lung cancer cell lines; format: cell-based, human; conditions: lung cancer and chemotherapeutic agent-resistant lung cancer cell lines (FIG. 13, 15)
Description: (§3) Human lung cancer cell lines (H1299, H460, A549, H226B, and PC9), breast cancer cell line (MDA-MB-231), liver cancer cell line (Hep3B), kidney cancer cell line (786-0), prostate cancer cell lines (DU145 and PC-3), and mouse lung cancer cell line (Lewis Lung Carcinoma, LLC) were purchased from ATCC (American Type Culture Collection) or obtained from Dr. John V. Heymach of MD Anderson Cancer Center, USA. The human head and neck cancer cell line (UMSCC38) was obtained from Dr. Jeffrey N. Myers (MD Anderson Cancer Center, USA). […]
as §2, with “Cell viability was calculated as the percentage of absorbance change in drug-treated group compared to vehicle (DMSO) treated control group.” left out

[7] = system: various lung cancer cells and chemotherapeutic drug-resistant lung cancer cell lines; assay: Anchorage-dependent colony formation in lung cancer and drug-resistant lung cancer cell lines; format: cell-based, human; conditions: 0.5 μM (FIG. 14, 16)
Description: as §3, with “USA). Human colon cancer cell lines (HCT116 and HT-29) and glioblastoma cell line (U87MG) were obtained from Professor Sang Kook Lee (Seoul National University College of Pharmacy). The human kidney cancer cell line (Caki-1), and gastric cancer cell line (SNU-638) were purchased from the Korean Cell Line Bank.” for “USA).”
Cancer cell lines were seeded in a 24-well or 6-well plate at 100-250 cells per well and allowed to attach, followed by treatment with drugs diluted in media and cultured for 2-3 weeks. Formed colonies were stained with crystal violet and counted. The drug's colony formation inhibitory effect was calculated as the percentage of colony number change in the drug-treated group compared to the vehicle (DMSO)-treated control group.

Cc1ccc2[nH]c3c(c2c1)CCN1C(=O)c2ccccc2N(C)C31 (stereo not drawn) [EV406]
lung cancer cell death (cell viability) [1]: excellent effects

C#CCN1c2ccccc2C(=O)N2CCc3c([nH]c4ccc(O)cc34)C21 (stereo not drawn) [EV508]
anchorage-independent colony formation [2]: effectively inhibited | inhibition at 0.5 µM [3]: > 65% | melting point: 230 to 232 °C | cancer cell survival inhibitory activity [4]: as excellent as EV507

CN1c2ccccc2C(=O)N2CCc3c([nH]c4c([N+](=O)[O-])cc([N+](=O)[O-])cc34)C21 (stereo not drawn) [EV402]
lung cancer cell death (cell viability) [1]: excellent effects

COc1ccc2[nH]c3c(c2c1)CCN1C(=O)c2ccccc2N(C)C31 (stereo not drawn) [EV403]
lung cancer cell death (cell viability) [1]: excellent effects

COc1ccc2c(c1)C(=O)N1CCc3c([nH]c4ccccc34)C1N2C (stereo not drawn) [EV302]
lung cancer cell death (cell viability) [1]: excellent effects

COc1cccc2c1C(=O)N1CCc3c([nH]c4ccccc34)C1N2C (stereo not drawn) [EV309]
lung cancer cell death (cell viability) [1]: excellent effects

CN1c2ccccc2C(=O)N2CCc3c([nH]c4ccc(O)cc34)C21 (stereo not drawn) [EV408]
expression of Hsp70 protein and Hsp70/Hsp90 client proteins (Akt, Src, and MEK) [5]: clear reduction | lung cancer cell death (cell viability) [1]: excellent effects | growth-inhibitory effect [6]: excellent growth-inhibitory effects | formation of colonies under anchorage-dependent (adherent) conditions [7]: significantly inhibited

CC(C)=CCN1c2ccccc2C(=O)N2CCc3c([nH]c4ccccc34)C21 (stereo not drawn) [EV217]
lung cancer cell death (cell viability) [1]: excellent effects

C#CCN1c2ccccc2C(=O)N2CCc3c([nH]c4c([N+](=O)[O-])cc([N+](=O)[O-])cc34)C21 (stereo not drawn) [EV506]
inhibition at 0.5 µM [3]: > 50% | melting point: 232 to 234 °C

C=C(C)CN1c2ccccc2C(=O)N2CCc3c([nH]c4ccc([N+](=O)[O-])cc34)C21 (stereo not drawn) [EV502]
inhibition at 0.5 µM [3]: > 50% | melting point: 261 to 262 °C

C=CCN1c2ccccc2C(=O)N2CCc3c([nH]c4ccc([N+](=O)[O-])cc34)C21 (stereo not drawn) [EV501]
anchorage-independent colony formation [2]: effectively inhibited | expression of Hsp70 and Src and Akt (client proteins of Hsp70/Hsp90) ([5]; Western blot (FIG. 21)): decrease | inhibition at 0.5 µM [3]: > 65% | melting point: 186 to 188 °C | cancer cell survival inhibitory activity [4]: as excellent as EV507

C=CCN1c2ccccc2C(=O)N2CCc3c([nH]c4ccccc34)C21 (stereo not drawn) [EV206, 14N-Allyl Evodiamine]
expression of Hsp70 protein and Hsp70/Hsp90 client proteins (Akt, Src, and MEK) [5]: clear reduction | lung cancer cell death (cell viability) [1]: excellent effects | growth-inhibitory effect [6]: excellent growth-inhibitory effects | formation of colonies under anchorage-dependent (adherent) conditions [7]: significantly inhibited

C=C(C)CN1c2ccccc2C(=O)N2CCc3c([nH]c4c([N+](=O)[O-])cc([N+](=O)[O-])cc34)C21 (stereo not drawn) [EV504]
melting point: 175 to 177 °C | cancer cell survival inhibitory activity [4]: as excellent as EV507

CN1c2ccccc2C(=O)N2CCc3c([nH]c4ccc([N+](=O)[O-])cc34)C21 (stereo not drawn) [EV401]
lung cancer cell death (cell viability) [1]: excellent effects

CN1c2ccc(I)cc2C(=O)N2CCc3c([nH]c4ccccc34)C21 (stereo not drawn) [EV310]
lung cancer cell death (cell viability) [1]: excellent effects

CN1c2ccccc2C(=O)N2CCc3c([nH]c4ccc(Cl)cc34)C21 (stereo not drawn) [EV407]
lung cancer cell death (cell viability) [1]: excellent effects

CN1c2cccc(Cl)c2C(=O)N2CCc3c([nH]c4ccccc34)C21 (stereo not drawn) [EV308]
lung cancer cell death (cell viability) [1]: excellent effects

C=C(C)CN1c2ccccc2C(=O)N2CCc3c([nH]c4ccc(O)cc34)C21 (stereo not drawn) [EV509]
anchorage-independent colony formation [2]: effectively inhibited | inhibition at 0.5 µM [3]: > 65% | melting point: 211 to 213 °C | cancer cell survival inhibitory activity [4]: as excellent as EV507

CCCOc1ccc2[nH]c3c(c2c1)CCN1C(=O)c2ccccc2N(C)C31 (stereo not drawn) [EV413]
lung cancer cell death (cell viability) [1]: excellent effects

C=CCN1c2ccccc2C(=O)N2CCc3c([nH]c4c([N+](=O)[O-])cc([N+](=O)[O-])cc34)C21 (stereo not drawn) [EV503]
inhibition at 0.5 µM [3]: > 50% | melting point: 229 to 231 °C

Cc1ccc2c(c1)C(=O)N1CCc3c([nH]c4ccccc34)C1N2C (stereo not drawn) [EV307]
lung cancer cell death (cell viability) [1]: excellent effects

CN1c2ccc(Br)cc2C(=O)N2CCc3c([nH]c4ccccc34)C21 (stereo not drawn) [EV306]
lung cancer cell death (cell viability) [1]: excellent effects

C#CCN1c2ccccc2C(=O)N2CCc3c([nH]c4ccccc34)C21 (stereo not drawn) [EV205, 14N-propagyl Evodiamine]
lung cancer cell death (cell viability) [1]: excellent effects

CN1c2ccc([N+](=O)[O-])cc2C(=O)N2CCc3c([nH]c4ccccc34)C21 (stereo not drawn) [EV303]
lung cancer cell death (cell viability) [1]: excellent effects

CC#CCN1c2ccccc2C(=O)N2CCc3c([nH]c4ccccc34)C21 (stereo not drawn) [EV219]
lung cancer cell death (cell viability) [1]: excellent effects

C=C(C)CN1c2ccccc2C(=O)N2CCc3c([nH]c4ccccc34)C21 (stereo not drawn) [EV218, 14N-(2-methyl)allyl evodiamine]
lung cancer cell death (cell viability) [1]: excellent effects

CN1c2ccc(F)cc2C(=O)N2CCc3c([nH]c4ccccc34)C21 (stereo not drawn) [EV301]
lung cancer cell death (cell viability) [1]: excellent effects

CN1c2ccc(Cl)cc2C(=O)N2CCc3c([nH]c4ccccc34)C21 (stereo not drawn) [EV304]
lung cancer cell death (cell viability) [1]: excellent effects
